According to patent US6946462B2, “N-monoacylated derivatives of o-phenylenediamines, their analogs and their use as pharmaceutical agents” (Hoffmann-La Roche Inc., priority 2001, dated 2005):

How the values were obtained:
[1] = test system: SW620 colon carcinoma cells; experiment: SW620 colon carcinoma xenograft in nude mice, tumor volume; format: in vivo, Balb/C nu/nu-mice; settings: oral, once daily, day 8 to day 27
Experimental: Female Balb/C nu/nu-mice(n=12 per group), aged 8-10 weeks, were subcutaneously injected with […] SW620 colon carcinoma cells. On day 6, animals with tumor volumes of about 200 mm^3 were randomly assigned to treatment groups. The test compound was administered as a fine suspension in 0.5% methylcellulose with an application volume of 10 ml/kg based on actual body weights. Oral treatment started on day 8 and continued through to day 27 on a once daily, 7 times per week treatment schedule.
The volume of the tumor was determined from the following equation:
Volume of a tumor=½×(major axis)×(minor axis)2

[2] = target: T1, rec. HDAC-1 purified from HEK 293 cells (Homo sapiens, UniProt Q13547); experiment: Assay for inhibition of histone deacetylase (HDAC), quenched peptide / Lys C fluorescence; format: biochemical; settings: 10 concentrations starting at 30 uM, 90 min incubation
T1 construct: made in house; host or cells: HEK 293 cells
Description: A) Assay for Inhibition of Histone Deacetylase (HDAC)
HDAC deacetylates lysines in histone H4. A 17 aa peptide with TAMRA at the C-terminus and QSY7 at the N-terminus was used as a substrate. Following deacetylation by HDAC the enzyme Lys C is able to cleave the peptide resulting in disappearence of the quench effect and a high signal. Inhibition of HDAC by compounds results in low signals because Lys C has no substrate for cleaving and the quench effect persists.
For dose response curves 10 concentrations were diluted starting at 30 uM. 10 ul compound dilution were put into each well of a 384 well plate. 10 ul HDAC (rec. HDAC-1 purified from HEK 293 cells; activity was assessed for each preparation) were added. 10 ul peptide was added (1 uM final concentration). After 90 min incubation at room temperature the reaction was stopped by addition of 20 ul test buffer including 3 ug/ml Lys C and 0.075% SDS. After overnight incubation the fluorescent signal of TAMRA was measured at absorption 544 nm, emission 590 nm by Victor 2.

[3] = test system: E-cadherin expression in A549; experiment: E-cadherin upregulation assay (ELISA, with WST-1 proliferation in the same well); format: cell-based; settings: A549 human lung carcinoma cells; % proliferation subtracted from % E-cadherin expression; 10 concentrations starting at 40 uM; read-out: E-cadherin upregulation EC50 [μM] (Assay B)
Description: B) E-cadherin Upregulation Assay
E-cadherin as an adhesion molecule is important for connection of the cells and integrity of tissues. […] Upregulation of the protein in cells where there is insufficient E-cadherin is regarded as a marker for the differentiation of the tumor cell. This corresponds to leaving the undifferentiated tumor cell status.
The compounds described are able to upregulate expression of E-cadherin in A549. In parallel, the proliferation of the cells is examined. The activity of an E-cadherin upregulator is defined as an increase in E-cadherin expression determined by an ELISA. Cell proliferation is also determined by WST-1 in the same well.
The assay was performed in 384-well format. […] 5000 cells per well were seeded in culture medium with 10% FCS at day 1. At day 2 compounds in different concentrations starting at 40 uM were added at a final concentration of DMSO of 0.5%. At day 4, WST-1 reagent was added and absorption was measured after 45 min (450 nm/690 nm).
The medium was aspirated, 100 ul fixation solution was added per well and discarded after 30 min, followed by addition of 100 ul blocking solution. […] Absorption was measured at 405 nm.
% proliferation of cells is substracted from % E-cadherin expression resulting in Delta. The dose response curve resulting from 10 concentrations was calculated using XLfit. […]

T1 sequence (Q13547 whole entry): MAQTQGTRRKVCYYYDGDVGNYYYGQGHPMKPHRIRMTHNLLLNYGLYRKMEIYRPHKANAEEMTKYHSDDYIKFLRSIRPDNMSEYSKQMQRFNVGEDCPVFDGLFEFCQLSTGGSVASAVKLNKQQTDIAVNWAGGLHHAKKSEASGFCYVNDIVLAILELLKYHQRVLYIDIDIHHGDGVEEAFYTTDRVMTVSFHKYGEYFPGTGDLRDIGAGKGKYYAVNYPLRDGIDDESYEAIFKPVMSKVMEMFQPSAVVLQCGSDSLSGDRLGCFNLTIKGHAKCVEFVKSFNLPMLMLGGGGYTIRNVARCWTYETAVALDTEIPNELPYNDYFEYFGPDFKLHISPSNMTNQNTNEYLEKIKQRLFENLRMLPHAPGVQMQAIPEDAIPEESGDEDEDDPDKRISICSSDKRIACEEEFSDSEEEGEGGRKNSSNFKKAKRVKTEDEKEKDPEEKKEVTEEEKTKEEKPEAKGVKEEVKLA

IC50 [2]: 11.1 µM | EC50 [3]: 5.9 µM
Structure (SMILES): Nc1ccccc1NC(=O)c1cscn1 [Compound 38, Thiazole-4-carboxylic acid (2-amino-phenyl)-amide]
Tumor volume (mm^3) ([1]; end of the study, female Balb/C nu/nu mice with s.c. SW620 tumors): 1029.0 mm^3 | % inhibition vs. control ([1]; tumor volume at the end of the study, SW620 xenograft): 53%
